Publication PMC9408963 (International Journal of Molecular Sciences, 2022)
≈ marks a conversion by molar mass, not a printed value. Where “and” joins values, the source holds several entries; their conditions need not be identical. Equal values may be shown once. Where a name gives a salt, the structure may show the parent alone. Read-outs that look alike come from different tables or passages of the source.

Key:
[1] = tested on: Xanthomonas oryzae pv. oryzae (Xoo); assay: microbe, parasite or virus in culture; assay type: cell-based; conditions: for EC50 / inhibition at 20 µg/mL / inhibition at 100 µg/mL: Xanthomonas oryzae; for EC50: read-out: EC50 for inhibition of Xoo growth; for inhibition at 20 µg/mL / inhibition at 100 µg/mL: read-out: Inhibition (%) of Xoo growth
[2] = tested on: Xanthomonas oryzae pv. oryzae (Xoo); assay: microbe, parasite or virus in culture; assay type: cell-based; conditions: for MIC: Xanthomonas oryzae
[3] = target: T1, recombinant XooFtsZ GTPase (Xanthomonas oryzae pv. oryzae, UniProt A0ACG7R862); assay: biochemical; conditions: for inhibition at 100 µM / inhibition at 200 µM: read-out: Inhibition Rate (%) of XooFtsZ GTPase activity
[4] = tested on: rice plants; conditions: in vivo
[5] = tested on: Xoo cells; assay type: cell-based, Xanthomonas oryzae pv. oryzae; design: average Xoo cell length: unit not given here; conditions: TEM
[6] = tested on: XooFtsZ; assay type: biochemical, Xanthomonas oryzae pv. oryzae; conditions: TEM, 20 μM XooFtsZ, 100 and 200 μM compound
[7] = tested on: human non-small cell lung cancer cell line (A549)
[8] = tested on: XooFtsZ; assay type: binding, Xanthomonas oryzae pv. oryzae; conditions: pH 7.4
[9] = in vitro; conditions: rat
[10] = tested on: rice bacterial leaf blight infected by Xoo; assay type: in vivo; design: curative control efficiency against rice bacterial leaf blight: dose or concentration left out as unconfirmed
[11] = tested on: rice bacterial leaf blight infected by Xoo; conditions: in vivo; cited from earlier work
[12] = target: T1, recombinant XooFtsZ GTPase; conditions: read-out: IC50 XooFtsZ GTPase activity; cited from earlier work
[13] = read-out: MIC against Xoo, in vitro

COc1cc(C2c3cc4c(cc3C(O)C3COC(=O)C23)OCO4)cc(OC)c1OCC1CO1 (stereo not shown) [A1]
EC50 [1]: > 200 µg/mL | inhibition at 20 µg/mL [1]: 10.6 ± 0.9% | inhibition at 100 µg/mL [1]: 18.3 ± 2.15% | MIC [2, 13]: > 400 µg/mL

CCC(CC)C(=O)Oc1c(OC)cc(C2c3cc4c(cc3C(O)C3COC(=O)C23)OCO4)cc1OC (stereo not shown) [B1]
EC50 [1]: > 200 µg/mL | inhibition at 20 µg/mL [1]: 5.33 ± 1.13% | inhibition at 100 µg/mL [1]: 17.4 ± 6% | MIC [2, 13]: > 400 µg/mL

CCCCC(CC)C(=O)Oc1c(OC)cc(C2c3cc4c(cc3C(O)C3COC(=O)C23)OCO4)cc1OC (stereo not shown) [B2]
EC50 [1]: 153 ± 9.2 µg/mL (≈ 291 µM) | inhibition at 20 µg/mL [1]: 7.3 ± 2.2% | inhibition at 100 µg/mL [1]: 44.2 ± 3.2% | IC50 [3]: 159 ± 16.7 µM | inhibition at 100 µM [3]: 48.6 ± 4.1% | inhibition at 200 µM [3]: 54.8 ± 5.2% | phytotoxicity to rice plants [4]: non-toxic | average Xoo cell length ([5]; 100 mg L^−1, 12 h): 4.03 ± 2.20 | average Xoo cell length ([5]; 100 mg L^−1, 24 h): 5.86 ± 3.23 | effect on XooFtsZ self-assembly [6]: fewer single-stranded protofilaments and an increase in disordered and disorganized protein aggregation | cytotoxicity (comparison) [7]: more cytotoxic than either DMEP or gefitinib | Stern–Volmer quenching constant Kq ([8]; 10 μM XooFtsZ, 25 °C): 3.845 × 10^11 M^−1 S^−1 | Stern–Volmer quenching constant Ksv ([8]; 10 μM XooFtsZ, 25 °C): 3845 M⁻¹ | IC50 [9]: 60.8 µM | curative control efficiency against rice bacterial leaf blight ([10]; pot experiments): 54.9% | protective control efficiency against rice bacterial leaf blight ([10]; pot experiments): 48.4%

COc1cc(C2c3cc4c(cc3C(O)C3COC(=O)C23)OCO4)cc(OC)c1OS(=O)(=O)c1ccc(C)cc1 (stereo not shown) [B3]
EC50 [1]: > 200 µg/mL | inhibition at 20 µg/mL [1]: 4.33 ± 0.8% | inhibition at 100 µg/mL [1]: 10.2 ± 1.2% | MIC [2, 13]: > 400 µg/mL

S=c1[nH]nc(NCNc2n[nH]c(=S)s2)s1 [BT, bismerthiazol]
Inhibition (%) of Xoo growth ([1]; 20 mg L^−1): 30.0 ± 2.20% | Inhibition (%) of Xoo growth ([1]; 100 mg L^−1): 92.7 ± 1.70% | EC50 for inhibition of Xoo growth ([1]; in vitro): 36.3 ± 2.50 µg/mL | MIC against Xoo ([2]; in vitro): 50 µg/mL (≈ 180 µM)

COc1ccc2cc3[n+](cc2c1OC)CCc1cc2c(cc1-3)OCO2 [Berberine, Berberine hydrochloride]
IC50 [3]: 225 ± 18.5 µM | inhibition at 100 µM [3]: 34.1 ± 2.6% | inhibition at 200 µM [3]: 48.7 ± 4.1% | Stern–Volmer quenching constant Kq ([8]; 10 μM XooFtsZ, 25 °C): 1.789 × 10^12 M^−1 S^−1 | Stern–Volmer quenching constant Ksv ([8]; 10 μM XooFtsZ, 25 °C): 17890 M⁻¹

COc1cc(C2c3cc4c(cc3C(O)C3COC(=O)C23)OCO4)cc(OC)c1O (stereo not shown) [DMEOP, 4′-demethylpodophyllotoxin]
EC50 for inhibition of Xoo growth [1]: >200 µg/mL | MIC against Xoo [2]: >400 µg/mL | Stern–Volmer quenching constant Kq [8]: 1.757 × 10^11 M^−1 S^−1 | Stern–Volmer quenching constant Ksv [8]: 1757 M⁻¹

COc1cc([C@@H]2c3cc4c(cc3[C@@H](O)[C@H]3COC(=O)[C@H]23)OCO4)cc(OC)c1O [DMEP, 4′-demethylepipodophyllotoxin]
curative control efficiency against rice bacterial leaf blight [11]: 50.0% | protective control efficiency against rice bacterial leaf blight [11]: 46.8% | EC50 for inhibition of Xoo growth [1]: 39.7 µg/mL and 38.7 µg/mL | IC50 [12]: 279 µM and 278 µM | MIC against Xoo [2]: 50 µg/mL (≈ 125 µM) | Stern–Volmer quenching constant Kq [8]: 7.593 × 10^11 M^−1 S^−1 | Stern–Volmer quenching constant Ksv [8]: 7593 M⁻¹

COc1cc([C@@H]2c3cc4c(cc3C[C@H]3COC(=O)[C@@H]32)OCO4)cc(OC)c1OC [Deoxypodophyllotoxin]
EC50 [1]: > 200 µg/mL | inhibition at 20 µg/mL [1]: 12.2 ± 4.8% | inhibition at 100 µg/mL [1]: 10.3 ± 3.5% | MIC [2, 13]: > 400 µg/mL | Stern–Volmer quenching constant Kq ([8]; 10 μM XooFtsZ, 25 °C): 2.276 × 10^11 M^−1 S^−1 | Stern–Volmer quenching constant Ksv ([8]; 10 μM XooFtsZ, 25 °C): 2276 M⁻¹

COc1cc([C@@H]2c3cc4c(cc3[C@@H](O[C@@H]3O[C@@H]5CO[C@@H](C)O[C@H]5[C@H](O)[C@H]3O)[C@H]3COC(=O)[C@H]23)OCO4)cc(OC)c1O [Etoposide]
EC50 [1]: > 200 µg/mL | inhibition at 100 µg/mL [1]: 18.8 ± 9.6% | effect on Xoo cell morphology ([5]; 100 mg L^−1, 24 h): induced cellular elongation | MIC [2, 13]: > 400 µg/mL | Stern–Volmer quenching constant Kq ([8]; 10 μM XooFtsZ, 25 °C): 2.396 × 10^11 M^−1 S^−1 | Stern–Volmer quenching constant Ksv ([8]; 10 μM XooFtsZ, 25 °C): 2396 M⁻¹

COc1cc([C@@H]2c3cc4c(cc3[C@H](O)[C@H]3COC(=O)[C@@H]23)OCO4)cc(OC)c1OC [Picropodophyllotoxin]
EC50 [1]: > 200 µg/mL | MIC ([2]; read-out: MIC against Xoo): > 400 µg/mL | Stern–Volmer quenching constant Kq [8]: 3.603 × 10^11 M^−1 S^−1 | Stern–Volmer quenching constant Ksv [8]: 3603 M⁻¹

COc1cc([C@@H]2c3cc4c(cc3[C@H](O)[C@H]3COC(=O)[C@H]23)OCO4)cc(OC)c1OC [Podophyllotoxin]
EC50 [1]: > 200 µg/mL | MIC ([2]; read-out: MIC against Xoo): > 400 µg/mL | Stern–Volmer quenching constant Kq [8]: 2.203 × 10^11 M^−1 S^−1 | Stern–Volmer quenching constant Ksv [8]: 2203 M⁻¹

Nc1nnc([S-])s1.Nc1nnc([S-])s1.[Cu+2] [TC, Thiodiazole copper]
curative control efficiency against rice bacterial leaf blight ([10]; in vivo): 31.2% | protective control efficiency against rice bacterial leaf blight ([10]; in vivo): 30.4%

COc1cc([C@@H]2c3cc4c(cc3[C@@H](O[C@@H]3O[C@@H]5CO[C@@H](c6cccs6)O[C@H]5[C@H](O)[C@H]3O)[C@H]3COC(=O)[C@H]23)OCO4)cc(OC)c1O [Teniposide]
EC50 [1]: > 200 µg/mL | inhibition at 100 µg/mL [1]: 20.3 ± 9.21% | effect on Xoo cell morphology ([5]; 100 mg L^−1, 24 h): induced cellular elongation | MIC [2, 13]: > 400 µg/mL | Stern–Volmer quenching constant Kq ([8]; 10 μM XooFtsZ, 25 °C): 2.920 × 10^11 M^−1 S^−1 | Stern–Volmer quenching constant Ksv ([8]; 10 μM XooFtsZ, 25 °C): 2920 M⁻¹
